Data on two molecules can be found in patent US20230414771A1, “PREPARATION AND USE OF IMMUNOSTIMULATORY CONJUGATED COMPLEXES FOR TARGETED DELIVERY AND ACTIVATION” (YAFEI SHANGHAI BIOLOGY MEDICINE SCIENCE & TECHNOLOGY CO., …, priority 2020, published 2023).

Read-outs that look alike come from different tables or passages of the source. Where a SMILES comes first, the peptide text is derived from it. The star is where a group is joined. Doxorubicin(3'-N) = COc1cccc2c1C(=O)c1c(O)c3c(c(O)c1C2=O)C[C@@](O)(C(=O)CO)C[C@@H]3O[C@H]1C[C@H](N*)[C@H](O)[C@H](C)O1; Hexanoyl(6-maleimido) = O=C1C=CC(=O)N1CCCCCC(=O)*

Data set [1] relates to M2 macrophages. Briefly: MTT cytotoxicity on M2 macrophages. The format is cell-based, C57BL/6 mice. The note with it: 48 hours, relative to C3. How it is done: The bilateral femur and tibiae of two C57BL/6 mice were taken out under aseptic conditions, and that metaphysis was cut off in a super-clean table. the marrow cavity was gently washed with serum-free MEM culture solution by a 5 mL sterile syringe for 4 times, and all cell suspensions were collect; Centrifuge at 1000 r/min for 10 min, discard the supernatant to obtain the cell precipitate, resuspend with an appropriate volume of serum-free MEM culture medium, repeatedly blow and homogenize, filter with a 40 uM filter screen, add 3 times the volume of erythrocyte lysate, and lyse on ice for 10 min; Centrifuge at 1000 r/min for 5 min, discard the supernatant to obtain the cell precipitate, wash with serum-free MEM culture medium for 2 times, and collect the cell precipitate; Resuspend the cells with MEM complete culture medium containing 10% FBS and 1% PS in volume fraction, and count the cells for subsequent differentiation; 100 uL, 20000 cells/well were inoculated into 96-well cell culture plate, 100 ng M-CSF was added into the culture medium for differentiation of M2 macrophages, and the cells were statically cultured at 37° C. in 5% C02 incubator, and induced to differentiate for 7 days, and the cell morphology was observed. […]
The cell survival rate and the 50% inhibitory concentration of the drug on the cells were calculated. […]

A short description of data set [2]: Tissue distribution of released doxorubicin in orthotopic liver CT26 tumor mice. The format is in vivo, BALB/c mice. How it is done:
• Objective: To investigate the tissue distribution of activating drugs in liver tumors. • Test animals: BALB/c mice, 6-8 weeks old, all female.
• 1) CT26 cells were purchased from ATCC. […] Randomization was performed when the tumor size reached 800-1000 mm^3. Tumor tissue was then extracted and cut into 100 mm^3 tumor tissue pieces and transplanted orthotopically into BALB/c mouse livers. • 3) Administration process: After 14 days, when the orthotopically transplanted tumor grew, a group of 36 orthotopically transplanted tumor mice were treated with drugs. […] The previously published use of EMC-AANL-DOX was for breast cancer treatment.

The nature of data set [3]: Solution stability, HPLC and electrophoresis. The settings on record: 0.5 mg/ml, pH 5.5, 25° C.
Procedure: (§2) Add 0.5 ml of sterile water for injection to prepare a 10 mg/ml mother solution. […] Take 30 ul of the mother solution, add 570 ul of buffer solutions with different pH values of 5.5, and prepare a 0.5 mg/ml sample solution. After the sample was clarified, it was placed in a 25° C./37° C. water bath, and after 8 hours, the sample was sampled by HPLC and electrophoresis to detect the content of the sample relative to 0 hours, and the solution stability data of different compounds could be obtained.
The subject of data set [4] is Human renal carcinoma OS-RC-2 tumor tissue homogenate. Briefly: Activation in OS-RC-2 tumor tissue homogenate. The format is biochemical. The settings on record: OS-RC-2 homogenate pH 6.0, 37° C., 1 mg/ml. As to the method: (§1) In the experiments of the present disclosure, 1 mg/ml of the sample compound was added to 100 μg of acidified tumor tissue homogenate (pH 6.0) at 37° C. The enzyme in the tumor tissue homogenate can cause the release of doxorubicin, and the reduction of compound and the increase of doxorubicin could be detected by HPLC to compare the activation efficiency of the drug in the tumor tissue.

Data set [5] deals with Human live cancer Hep G2 tumor tissue homogenate. Briefly: Activation in Hep G2 tumor tissue homogenate. The format is biochemical. The settings on record: Hep G2 homogenate pH 6.0, 37° C., 1 mg/ml. As to the method: as §1
Data set [6] has as its system M2 macrophages. In words: Cytotoxicity screening, inhibition rate of M2 macrophages at 10 uM. The format is cell-based, C57BL/6 mice. The note with it: 10 uM drug per well, 3 wells, relative to the drug-free group. How it is done: After the cell count in Example 13, the cell concentration was adjusted with the culture medium, and the cells were seeded in a 96-well culture plate at […] of cell suspension per well, wherein the seeding concentration of CD8+ T cells was 100000 cells/well, and the seeding concentration of M2 macrophages was 20000 cells/well. The 96-well plate was incubated overnight for 24 hour at 37° C. in a carbon dioxide (5%) incubator. After 24 hours, 100 ul of cell culture solutions containing different concentrations of drugs were added to the 96-well culture plate. At the same time, a control well (0.1% DMSO) with no drug added and only the corresponding drug solvent and a zero-adjusted well (Blank) with only medium and no cells added was set. Each set was prepared in triplicate and the plates were incubated for 48 hours at 37° C. in a 5% CO2 incubator. After 48 hours, 20 μl MTT (5 mg/ml) was added to each well and the incubation was continued for 4 hours. The culture medium was then gently aspirated, and 150 μl DMSO was added to each well as solvent for dissolution. After dissolution, the absorbance at 490 nm was measured with a microplate reader.
Cytotoxicity screening experiments for some compounds were performed for M2 macrophage inhibition as in embodiment 14.

In data set [7] the test system is Human breast cancer MDA-MB435 tumor tissue homogenate. Briefly: Activation in MDA-MB435 tumor tissue homogenate. The note with it: MDA-MB435 homogenate pH 6.0, 37° C., 1 mg/ml. The format is biochemical. As to the method:
as §1

The test system of a further data set is Human heart. In words: Activation in human heart homogenate. The format is biochemical. The note with it: pH 6.0, 37° C., 1 mg/ml.
For data set [8] the following is noted: 0.5 mg/ml, pH 5.5.
Procedure: as §2
Data set [9] deals with Human prostate cancer PC-3 tumor tissue homogenate. In words: Activation in PC-3 tumor tissue homogenate. The format is biochemical. The settings on record: PC-3 homogenate pH 6.0, 37° C., 1 mg/ml. As to the method: as §1
For data set [10], the system named is Human non-small cell lung cancer A549 tumor tissue homogenate. Briefly: Activation in A549 tumor tissue homogenate. The format is biochemical. The settings on record: A549 homogenate pH 6.0, 37° C., 1 mg/ml. How it is done:
as §1

Data set [11] is classed as physicochemical. From the text: The freeze-dried products EMC-AANL-DOX, HSA-EMC-AANL-DOX, HSA-QHL-087-DOX and HSA-QHL-087-N-CBP prepared by the embodiment of the disclosure are subpackaged in a sterile room and redissolved by water for injection.

For the molecule `COc1cccc2c1C(=O)c1c(O)c3c(c(O)c1C2=O)C[C@@](O)(C(=O)CO)C[C@@H]3O[C@H]1C[C@H](NC(=O)[C@H](CC(C)C)NC(=O)[C@H](CC(N)=O)NC(=O)[C@H](C)NC(=O)[C@H](C)NC(=O)CCOCCOCCNC(=O)CCN2C(=O)C=CC2=O)[C@H](O)[C@H](C)O1` [QHL-087-DOX], the “cytotoxicity against M2 macrophages (FIG. 6)” value in the data set with M2 macrophages [1] was “significantly improved cytotoxicity against M2 macrophages”. Moreover, the “doxorubicin delivery and activation compared with EMC-AANL-DOX” value in [2] (liver and in situ liver tumor) is “enhanced doxorubicin delivery and activation in situ liver cancer”. The “distribution of active doxorubicin (FIGS. 8 and 9)” value in data set [2] (tissues collected at 1-72 hr, AUClast) was “mainly distributed in the liver and liver orthotopic tumors”. Also, the “Stability data of the solution, 8 hr (content relative to 0 hours)” value in [3] is on record as 98.2%.
For the molecule `COc1cccc2c1C(=O)c1c(O)c3c(c(O)c1C2=O)C[C@@](O)(C(=O)CO)C[C@@H]3O[C@H]1C[C@H](NC(=O)[C@H](CC(C)C)NC(=O)[C@H](CC(N)=O)NC(=O)[C@H](C)NC(=O)[C@H](C)NC(=O)CCCCCN2C(=O)C=CC2=O)[C@H](O)[C@H](C)O1` [EMC-AANL-DOX] ({Hexanoyl(6-maleimido)}-AANL-{Doxorubicin(3'-N)}), the “Compound activation ratios (%)” value in data set [4] worked out at 46.4%; in data set [5], 75.3%; in data set [7] it was 42.3%; with Human heart, 0.2%; in data set [9] it was 37.3%; in data set [10], 46.4%. Besides, the “Inhibition rate of M2 macrophages” value in the data set on M2 macrophages [6] is 34.6%. The “Stability data of the solution, 8 hr (content relative to 0 hours)” value in [8] was 94.3%. Besides, in data set [11], the “Solubility in water for injection” value was “Insolubility”.
